In patent publication US11046699B2, “Pyrazolo-pyrimidin-amino-cycloalkyl compounds and their therapeutic uses” (RAPT THERAPEUTICS, INC., priority 2018, dated 2021) one finds IC50 data, which are given here for 29 molecules.

SMILES strings stand for the structures.

For the test, the target named is GCN2 (Homo sapiens, UniProt Q9P2K8). As to the kind of experiment: GCN2 enzymatic endpoint assay: phosphorylation of GFP-eIF2α measured by TR-FRET (Lanthascreen). Type of test: biochemical. As to conditions: tested as described in Example 77; compound and/or hydrochloride, dihydrochloride or trifluoroacetic acid salt; read-out: IC 50 Activity. The method in brief: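 Reaction started with 2 μM ATP and 80 nM GFP-labelled eIF2α substrate at room temperature, stopped with EDTA after 90 minutes. Phospho-eIF2α detected by terbium-labelled antibody TR-FRET; activity taken as 520 nm (fluorescein) to 495 nm (terbium) emission ratio.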
Chain of GCN2 (Q9P2K8 whole entry): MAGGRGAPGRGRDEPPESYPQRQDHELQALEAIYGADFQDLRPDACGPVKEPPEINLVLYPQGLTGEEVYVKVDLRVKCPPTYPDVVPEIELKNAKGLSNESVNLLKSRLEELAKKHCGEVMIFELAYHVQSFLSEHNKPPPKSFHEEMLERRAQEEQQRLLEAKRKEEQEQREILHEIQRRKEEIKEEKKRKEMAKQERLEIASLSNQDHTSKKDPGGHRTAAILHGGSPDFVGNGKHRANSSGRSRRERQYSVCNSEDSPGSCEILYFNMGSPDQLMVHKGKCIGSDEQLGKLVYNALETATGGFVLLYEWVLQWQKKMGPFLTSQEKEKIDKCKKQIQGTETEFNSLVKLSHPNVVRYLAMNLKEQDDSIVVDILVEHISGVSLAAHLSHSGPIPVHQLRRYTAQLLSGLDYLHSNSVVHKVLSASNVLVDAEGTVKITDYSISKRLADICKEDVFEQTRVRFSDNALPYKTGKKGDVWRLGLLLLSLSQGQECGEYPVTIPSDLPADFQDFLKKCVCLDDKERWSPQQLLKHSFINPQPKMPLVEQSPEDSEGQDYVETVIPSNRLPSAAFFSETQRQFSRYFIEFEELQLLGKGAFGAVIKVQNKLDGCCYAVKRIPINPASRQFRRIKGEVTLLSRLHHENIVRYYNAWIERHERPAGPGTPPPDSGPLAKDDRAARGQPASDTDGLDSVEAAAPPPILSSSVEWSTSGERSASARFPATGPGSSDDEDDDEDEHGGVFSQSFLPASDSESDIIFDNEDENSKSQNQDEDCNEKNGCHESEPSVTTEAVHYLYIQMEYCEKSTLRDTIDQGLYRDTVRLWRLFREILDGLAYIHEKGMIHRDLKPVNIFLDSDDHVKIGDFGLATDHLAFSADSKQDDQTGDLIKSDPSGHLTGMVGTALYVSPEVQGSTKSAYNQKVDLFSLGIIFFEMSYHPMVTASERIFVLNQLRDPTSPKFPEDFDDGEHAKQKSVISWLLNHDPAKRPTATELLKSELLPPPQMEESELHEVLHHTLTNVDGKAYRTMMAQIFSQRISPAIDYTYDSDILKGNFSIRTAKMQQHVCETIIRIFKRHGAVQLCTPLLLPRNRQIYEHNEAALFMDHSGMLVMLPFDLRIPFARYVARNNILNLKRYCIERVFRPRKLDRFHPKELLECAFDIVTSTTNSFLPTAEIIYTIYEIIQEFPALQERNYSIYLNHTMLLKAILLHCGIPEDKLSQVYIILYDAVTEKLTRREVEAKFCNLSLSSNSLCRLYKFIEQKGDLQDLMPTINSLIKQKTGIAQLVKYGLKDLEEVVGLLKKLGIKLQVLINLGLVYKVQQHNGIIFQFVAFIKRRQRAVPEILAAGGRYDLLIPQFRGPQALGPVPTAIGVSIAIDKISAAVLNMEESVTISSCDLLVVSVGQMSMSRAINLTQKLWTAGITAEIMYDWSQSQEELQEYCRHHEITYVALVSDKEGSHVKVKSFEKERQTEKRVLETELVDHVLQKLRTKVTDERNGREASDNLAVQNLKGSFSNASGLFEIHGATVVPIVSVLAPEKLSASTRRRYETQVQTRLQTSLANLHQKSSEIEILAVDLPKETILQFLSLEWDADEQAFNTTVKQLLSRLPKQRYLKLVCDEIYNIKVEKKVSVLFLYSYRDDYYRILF
On the technique in general: In TR-FRET formats the signal depends on donor and acceptor labels being close together.

Turning to `COCCNC(=O)[C@]1(C)CC[C@@H](Nc2ncc3c(Br)nn(-c4ccc5ncccc5c4)c3n2)C1` [(1R,3R)-3-((3-bromo-1-(quinolin-6-yl)-1H-pyrazolo[3,4-d]pyrimidin-6-yl)amino)-N-(2-methoxyethyl)-1-methylcyclopentane-1-carboxamide], the IC50 fell in the range of 25 to 200 nM.

Turning to `COCCNS(=O)(=O)[C@@H]1CC[C@@H](Nc2ncc3c(Br)nn(-c4ccc5ncccc5c4)c3n2)C1` [(1R,3R)-3-((3-bromo-1-(quinolin-6-yl)-1H-pyrazolo[3,4-d]pyrimidin-6-yl)amino)-N-(2-methoxyethyl)cyclopentane-1-sulfonamide], the IC50 is 25 to 200 nM.

For the molecule `O=C(NCCN1CCOCC1)[C@@H]1CC[C@@H](Nc2ncc3c(Br)nn(-c4ccc5ncccc5c4)c3n2)C1` [(1R,3R)-3-((3-bromo-1-(quinolin-6-yl)-1H-pyrazolo[3,4-d]pyrimidin-6-yl)amino)-N-(2-morpholinoethyl)cyclopentane-1-carboxamide], the IC50 lay within 25 to 200 nM.

For the molecule `CC1(NC(=O)[C@@H]2CC[C@@H](Nc3ncc4c(Br)nn(-c5ccc6ncccc6c5)c4n3)C2)CCOC1` (stereo partly drawn) [(1R,3R)-3-((3-bromo-1-(quinolin-6-yl)-1H-pyrazolo[3,4-d]pyrimidin-6-yl)amino)-N-(3-methyltetrahydrofuran-3-yl)cyclopentane-1-carboxamide], the IC50 lay within 25 to 200 nM.

For the molecule `O=C1CC(CNC(=O)[C@@H]2CC[C@@H](Nc3ncc4c(Br)nn(-c5ccc6ncccc6c5)c4n3)C2)CCN1` (stereo partly drawn) [(1R,3R)-3-((3-bromo-1-(quinolin-6-yl)-1H-pyrazolo[3,4-d]pyrimidin-6-yl)amino)-N-((2-oxopiperidin-4-yl)methyl)cyclopentane-1-carboxamide], the IC50 was in the range of 25 to 200 nM.

For the molecule `CC1(CNC(=O)[C@@H]2CC[C@@H](Nc3ncc4c(Br)nn(-c5ccc6ncccc6c5)c4n3)C2)COC1` [(1R,3R)-3-((3-bromo-1-(quinolin-6-yl)-1H-pyrazolo[3,4-d]pyrimidin-6-yl)amino)-N-((3-methyloxetan-3-yl)methyl)cyclopentane-1-carboxamide], the IC50 lay within 200 to 500 nM.

With `O=C(NC[C@@H]1COCCN1)[C@@H]1CC[C@@H](Nc2ncc3c(Br)nn(-c4ccc5ncccc5c4)c3n2)C1` [(1R,3R)-3-((3-bromo-1-(quinolin-6-yl)-1H-pyrazolo[3,4-d]pyrimidin-6-yl)amino)-N-(((R)-morpholin-3-yl)methyl)cyclopentane-1-carboxamide], the IC50 was in the range of 200 to 500 nM.

Regarding `O=C(NC[C@H]1COCCN1)[C@@H]1CC[C@@H](Nc2ncc3c(Br)nn(-c4ccc5ncccc5c4)c3n2)C1` [(1R,3R)-3-((3-bromo-1-(quinolin-6-yl)-1H-pyrazolo[3,4-d]pyrimidin-6-yl)amino)-N-(((S)-morpholin-3-yl)methyl)cyclopentane-1-carboxamide], the IC50 was 25 to 200 nM.

As for `COC[C@@H](C)NC(=O)[C@@H]1CCC[C@@H](Nc2ncc3c(Br)nn(-c4ccc5ncccc5c4)c3n2)C1` [(1R,3R)-3-((3-bromo-1-(quinolin-6-yl)-1H-pyrazolo[3,4-d]pyrimidin-6-yl)amino)-N-((R)-1-methoxypropan-2-yl)cyclohexane-1-carboxamide], the IC50 was in the range of 500 to 1000 nM.

As for `O=C(N[C@@H]1CCOC1)[C@@H]1CC[C@@H](Nc2ncc3c(Br)nn(-c4ccc5ncccc5c4)c3n2)C1` [(1R,3R)-3-((3-bromo-1-(quinolin-6-yl)-1H-pyrazolo[3,4-d]pyrimidin-6-yl)amino)-N-((R)-tetrahydrofuran-3-yl)cyclopentane-1-carboxamide], the IC50 was 25 to 200 nM.

As to `COC[C@H](C)NC(=O)[C@@H]1CCC[C@@H](Nc2ncc3c(Br)nn(-c4ccc5ncccc5c4)c3n2)C1` [(1R,3R)-3-((3-bromo-1-(quinolin-6-yl)-1H-pyrazolo[3,4-d]pyrimidin-6-yl)amino)-N-((S)-1-methoxypropan-2-yl)cyclohexane-1-carboxamide], the IC50 lay within 500 to 1000 nM.

On to `COC[C@H](C)NC(=O)[C@@H]1CC[C@@H](Nc2ncc3c(Br)nn(-c4ccc5ncccc5c4)c3n2)C1` [(1R,3R)-3-((3-bromo-1-(quinolin-6-yl)-1H-pyrazolo[3,4-d]pyrimidin-6-yl)amino)-N-((S)-1-methoxypropan-2-yl)cyclopentane-1-carboxamide], for which the IC50 was 25 to 200 nM.

For `O=C(N[C@H]1CCOC1)[C@@H]1CC[C@@H](Nc2ncc3c(Br)nn(-c4ccc5ncccc5c4)c3n2)C1` [(1R,3R)-3-((3-bromo-1-(quinolin-6-yl)-1H-pyrazolo[3,4-d]pyrimidin-6-yl)amino)-N-((S)-tetrahydrofuran-3-yl)cyclopentane-1-carboxamide], the IC50 fell in the range of 25 to 200 nM.

Turning to `O=C(NCc1ncco1)[C@@H]1CC[C@@H](Nc2ncc3c(Br)nn(-c4ccc5ncccc5c4)c3n2)C1` [(1R,3R)-3-((3-bromo-1-(quinolin-6-yl)-1H-pyrazolo[3,4-d]pyrimidin-6-yl)amino)-N-(oxazol-2-ylmethyl)cyclopentane-1-carboxamide], the IC50 lay in the range of 25 to 200 nM.

As to `O=C(NC1COC1)[C@@H]1CC[C@@H](Nc2ncc3c(Br)nn(-c4ccc5ncccc5c4)c3n2)C1` [(1R,3R)-3-((3-bromo-1-(quinolin-6-yl)-1H-pyrazolo[3,4-d]pyrimidin-6-yl)amino)-N-(oxetan-3-yl)cyclopentane-1-carboxamide], the IC50 lay in the range of 25 to 200 nM.

Regarding `O=C(NC1CCOCC1)[C@@H]1CC[C@@H](Nc2ncc3c(Br)nn(-c4ccc5ncccc5c4)c3n2)C1` [(1R,3R)-3-((3-bromo-1-(quinolin-6-yl)-1H-pyrazolo[3,4-d]pyrimidin-6-yl)amino)-N-(tetrahydro-2H-pyran-4-yl)cyclopentane-1-carboxamide], the IC50 lay in the range of 25 to 200 nM.

Regarding `O=S(=O)(NC1CCOCC1)[C@@H]1CC[C@@H](Nc2ncc3c(Br)nn(-c4ccc5ncccc5c4)c3n2)C1` [(1R,3R)-3-((3-bromo-1-(quinolin-6-yl)-1H-pyrazolo[3,4-d]pyrimidin-6-yl)amino)-N-(tetrahydro-2H-pyran-4-yl)cyclopentane-1-sulfonamide], the IC50 was 200 to 500 nM.

As for `O=S(=O)(NC1CCC1)[C@@H]1CC[C@@H](Nc2ncc3c(Br)nn(-c4ccc5ncccc5c4)c3n2)C1` [(1R,3R)-3-((3-bromo-1-(quinolin-6-yl)-1H-pyrazolo[3,4-d]pyrimidin-6-yl)amino)-N-cyclobutylcyclopentane-1-sulfonamide], the IC50 is 500 to 1000 nM.

On to `O=S(=O)(NC1CC1)[C@@H]1CC[C@@H](Nc2ncc3c(Br)nn(-c4ccc5ncccc5c4)c3n2)C1` [(1R,3R)-3-((3-bromo-1-(quinolin-6-yl)-1H-pyrazolo[3,4-d]pyrimidin-6-yl)amino)-N-cyclopropylcyclopentane-1-sulfonamide], for which the IC50 was in the range of 25 to 200 nM.

For the molecule `COCCNC(=O)[C@@H]1CC[C@@H](Nc2ncc3c(Br)nn(-c4ccc5cccnc5c4)c3n2)C1` [(1R,3R)-3-((3-bromo-1-(quinolin-7-yl)-1H-pyrazolo[3,4-d]pyrimidin-6-yl)amino)-N-(2-methoxyethyl)cyclopentane-1-carboxamide], the IC50 fell in the range of 200 to 500 nM.

As to `CS(=O)(=O)CCNC(=O)[C@@H]1CC[C@@H](Nc2ncc3c(Br)nn(-c4ccc5nccnc5c4)c3n2)C1` [(1R,3R)-3-((3-bromo-1-(quinoxalin-6-yl)-1H-pyrazolo[3,4-d]pyrimidin-6-yl)amino)-N-(2-(methylsulfonyl)ethyl)cyclopentane-1-carboxamide], the IC50 lay in the range of 200 to 500 nM.

For the molecule `COCCNC(=O)[C@@H]1CC[C@@H](Nc2ncc3c(Br)nn(-c4ccc5nccnc5c4)c3n2)C1` [(1R,3R)-3-((3-bromo-1-(quinoxalin-6-yl)-1H-pyrazolo[3,4-d]pyrimidin-6-yl)amino)-N-(2-methoxyethyl)cyclopentane-1-carboxamide], the IC50 fell in the range of 25 to 200 nM.

Consider `CNC(=O)[C@@H]1CC[C@@H](Nc2ncc3c(Br)nn(-c4ccn5nccc5c4)c3n2)C1` [(1R,3R)-3-[(3-bromo-1-pyrazolo[1,5-a]pyridin-5-yl-pyrazolo[3,4-d]pyrimidin-6-yl)amino]-N-methyl-cyclopentane-carboxamide], for which the IC50 was 25 to 200 nM.

On to `CNC(=O)[C@]1(CC(F)F)CC[C@@H](Nc2ncc3c(Br)nn(-c4ccc5ncncc5c4)c3n2)C1` [(1R,3R)-3-[(3-bromo-1-quinazolin-6-yl-pyrazolo[3,4-d]pyrimidin-6-yl)amino]-1-(2,2-difluoroethyl)-N-methyl-cyclopentanecarboxamide], for which the IC50 lay in the range of 25 to 200 nM.

Turning to `CNC(=O)[C@]1(C)CC[C@@H](Nc2ncc3c(Br)nn(-c4ccc5ncncc5c4)c3n2)C1` [(1R,3R)-3-[(3-bromo-1-quinazolin-6-yl-pyrazolo[3,4-d]pyrimidin-6-yl)amino]-N,1-dimethyl-cyclopentane-carboxamide], the IC50 was 25 to 200 nM.

In the case of `CNC(=O)[C@]1(C)CC[C@@H](Nc2ncc3c(Br)nn(-c4ccc5ncsc5c4)c3n2)C1` [(1R,3R)-3-[[1-(1,3-benzothiazol-6-yl)-3-bromo-pyrazolo[3,4-d]pyrimidin-6-yl]amino]-N,1-dimethyl-cyclopentane-carboxamide], the IC50 lay within 25 to 200 nM.

On to `CNC(=O)[C@]1(C)CC[C@@H](Nc2ncc3c(Br)nn(-c4ccc5nc(NC(C)=O)ncc5c4)c3n2)C1` [(1R,3R)-3-[[1-(2-acetamidoquinazolin-6-yl)-3-bromo-pyrazolo[3,4-d]pyrimidin-6-yl]amino]-N,1-dimethyl-cyclopentane-carboxamide; 2,2,2-trifluoroacetic acid], for which the IC50 fell in the range of 25 to 200 nM.

Turning to `CNC(=O)[C@]1(C)CC[C@@H](Nc2ncc3c(Br)nn(-c4cc(N)c5ncccc5c4)c3n2)C1` [(1R,3R)-3-[[1-(8-amino-6-quinolyl)-3-bromo-pyrazolo[3,4-d]pyrimidin-6-yl]amino]-N,1-dimethyl-cyclopentane-carboxamide], the IC50 is 25 to 200 nM.

On to `CNC(=O)[C@]1(COC)CC[C@@H](Nc2ncc3c(I)nn(-c4cc(F)c5ncccc5c4)c3n2)C1` [(1R,3R)-3-[[1-(8-fluoro-6-quinolyl)-3-iodo-pyrazolo[3,4-d]pyrimidin-6-yl]amino]-1-(methoxymethyl)-N-methyl-cyclopentane-carboxamide], for which the IC50 was below 25 nM.
